In data set [1] the test system is human A2780 ovarian carcinoma cells. In words: Antiproliferative activity on A2780 cells (MTT). Particulars: 96 h, four days of incubation, example C.2, read-out: Cellular activity pIC50 (converted). Type of data set: cell-based. Here is the method: All compounds tested were dissolved in DMSO and further dilutions were made in culture medium. Final DMSO concentrations never exceeded 0.1% (v/v) in cell proliferation assays. Controls contained A2780 cells and DMSO without compound and blanks contained DMSO but no cells. MTT was dissolved at 5 mg/ml in PBS.
Cells were routinely kept as monolayer cultures at 37° C. in a humidified 5% CO2 atmosphere. Cells were passaged once a week using a trypsin/EDTA solution at a split ratio of 1:40. All media and supplements were obtained from Life Technologies. Cells were free of mycoplasma contamination as determined using the Gen-Probe Mycoplasma Tissue Culture kit (supplier: BioMerieux).
Cells were seeded in NUNC™ 96-well culture plates (Supplier: Life Technologies) and allowed to adhere to the plastic overnight. Densities used for plating were 1500 cells per well in a total volume of 200 μl medium. After cell adhesion to the plates, medium was changed and drugs and/or solvents were added to a final volume of 200 μl. Following four days of incubation, medium was replaced by 200 μl fresh medium and cell density and viability was assessed using an MTT-based assay. To each well, 25 μl MTT solution was added and the cells were further incubated for 2 hours at 37° C. The medium was then carefully aspirated and the blue MTT-formazan product was solubilized by addition of 25 μl glycine buffer followed by 100 μl of DMSO. […] Within an experiment, the results for each experimental condition are the mean of 3 replicate wells. […] For each experiment, controls (containing no drug) and a blank incubation (containing no cells or drugs) were run in parallel. The blank value was subtracted from all control and sample values. For each sample, the mean value for cell growth (in absorbance units) was expressed as a percentage of the mean value for cell growth of the control. […] Herein the effects of test compounds are expressed as pIC50 (the negative log value of the IC50-value)(see Table F-3).

Data set [2] addresses histone deacetylase (HeLa nuclear extracts). In words: In vitro assay for inhibition of histone deacetylase (HDAC Fluorescent Activity Assay, Fluor de Lys). Particulars: HeLa nuclear extracts 60 μg/ml, 75 μM Fluor de Lys substrate, example C.1. Format: biochemical. The text has this:
The in vitro assay for inhibition of histone deacetylase (see example C.1) measures the inhibition of HDAC enzymatic activity obtained with the compounds of formula (I).
The HDAC Fluorescent Activity Assay/Drug Discovery Kit of Biomol (cat.No: AK-500-0001) was used. The HDAC Fluorescent Activity Assay is based on the Fluor de Lys (Fluorogenic Histone deAcetylase Lysyl) substrate and developer combination. The Fluor de Lys substrate, comprises an acetylated lysine side chain. Deacetylation of the substrate sensitizes the substrate so that, in the second step, treatment with the Fluor de Lys developer produces a fluorophore.
HeLa nuclear extracts (supplier: Biomol) were incubated at 60 μg/ml with 75 μM of substrate. The Fluor de Lys substrate was added in a buffer containing 25 mM Tris, 137 mM NaCl, 2.7 mM KCl and 1 mM MgCl2.6H2O at pH 7.4. After 30 min, 1 volume of the developer was added. The fluorophore was excited with 355 nm light and the emitted light (450 nm) was be detected on a fluorometric plate reader.
For each experiment, controls (containing HeLa nuclear extract and buffer), a blank incubation (containing buffer but no HeLa nuclear extract) and samples (containing compound dissolved in DMSO and further diluted in buffer and HeLa nuclear extract) were run in parallel. In first instance, compounds were tested at a concentration of 10^−5M. […] All sample were tested 4 times. In each test the blank value was subtracted from both the control and the sample values. The control sample represented 100% of substrate deactylation. For each sample the fluorescence was expressed as a percentage of the mean value of the controls. […] Herein the effects of test compounds are expressed as pIC50 (the negative log value of the IC50-value) (see Table F-3).

One may read the melting point as the temperature of the solid-liquid transition.

Regarding `O=C(NO)c1cnc(N2CCC(CN3CCN(c4cccc5ccccc45)C3=O)CC2)nc1` [Compound 1], the IC50 in data set [1] is 1000 nM. Besides, the “Enzyme activity pIC50” value in data set [2] turned out to be 7.1.

`O=C(NO)c1cnc(N2CCC(Cn3ccn(-c4ccc(Oc5ccccc5)cc4)c3=O)CC2)nc1` [Compound 2]: in data set [1], the IC50 was 126 nM. In data set [2], the “Enzyme activity pIC50” value turned out to be 7.5.

With `O=C(NO)c1cnc(N2CCC(Cn3ccn(-c4ccc(-c5ccccc5)cc4)c3=O)CC2)nc1` [Compound 3], in data set [1], the IC50 was 79.4 nM. For the same compound, the “Enzyme activity pIC50” value in data set [2] stood at 7.8.

`O=C(NO)c1cnc(N2CCC(Cn3ccn(-c4ccc(F)cc4)c3=O)CC2)nc1` [Compound 4]: the IC50 in data set [1] is 631 nM. In addition, the “Enzyme activity pIC50” value in data set [2] was 7.6.

In turn, `N#Cc1ccc(N2C(=O)C(c3ccccc3)N(CC3CCN(c4ncc(C(=O)NO)cn4)CC3)C2=O)cc1` (centres unmarked) [Compound 5] registered a melting point of 187 °C. Also, the IC50 in data set [1] was 631 nM. For the same compound, the “Enzyme activity pIC50” value in data set [2] is 7.1.

`CC1C(=O)N(c2ccc(-c3ccccc3)cc2)C(=O)N1CC1CCN(c2ncc(C(=O)NO)cn2)CC1` (centres unmarked) [Compound 6]: the melting point was 169 °C. The IC50 in data set [1] was 501 nM. Further, the “Enzyme activity pIC50” value in data set [2] came to 7.2.

For `O=C(NO)c1cnc(N2CCC(CN3CCN(c4ccc(Oc5ccccc5)cc4)C3=O)CC2)nc1` [Compound 10], the IC50 in data set [1] is 2510 nM. The “Enzyme activity pIC50” value in data set [2] was found to be 7.2.

Take `O=C(NO)c1cnc(N2CCC(CN3CCN(c4ccc(-c5ccccc5)cc4)C3=O)CC2)cn1` [Compound 11]: the IC50 in data set [1] was 631 nM. The “Enzyme activity pIC50” value in data set [2] is 7.3.

For `O=C(NO)c1cnc(N2CCOC(Cn3ccn(-c4ccccc4)c3=O)C2)nc1` (centres unmarked) [Compound 12], in data set [1], the IC50 was 631 nM. Besides, in data set [2], the “Enzyme activity pIC50” value worked out at 7.5.

As to `COc1ccc(-n2ccn(CC3CN(c4ncc(C(=O)NO)cn4)CCO3)c2=O)cc1OC` (centres unmarked) [Compound 13], in data set [1], the IC50 was 794 nM. Also, the “Enzyme activity pIC50” value in data set [2] came out at 7.3.

`Cc1cccc(-n2ccn(CC3CN(c4ncc(C(=O)NO)cn4)CCO3)c2=O)c1` (centres unmarked) [Compound 14]: the IC50 in data set [1] was 6310 nM. Moreover, in data set [2], the “Enzyme activity pIC50” value was found to be 6.8.

For `O=C(NO)c1cnc(N2CCOC(Cn3ccn(-c4cccc(C(F)(F)F)c4)c3=O)C2)nc1` (centres unmarked) [Compound 15], in data set [1], the IC50 is 1260 nM. Besides, the “Enzyme activity pIC50” value in data set [2] was determined as 7.3.

Consider `COc1cc(-n2ccn(CC3CN(c4ncc(C(=O)NO)cn4)CCO3)c2=O)cc(OC)c1OC` (centres unmarked) [Compound 16], for which, in data set [1], the IC50 is 1260 nM. The “Enzyme activity pIC50” value in data set [2] was found to be 7.2.

As for `COc1ccc(-n2ccn(CC3CN(c4ncc(C(=O)NO)cn4)CCO3)c2=O)cc1` (centres unmarked) [Compound 18], in data set [1], the IC50 is 1260 nM. Also, in data set [2], the “Enzyme activity pIC50” value is 7.2.

For the compound `O=C(NO)c1cnc(N2CCOC(Cn3ccn(-c4ccc(F)cc4)c3=O)C2)nc1` (centres unmarked) [Compound 20], in data set [1], the IC50 is 501 nM. Besides, the “Enzyme activity pIC50” value in data set [2] was found to be 7.3.

With `O=C(NO)c1cnc(N2CCOC(Cn3ccn(-c4cccc(F)c4)c3=O)C2)nc1` (centres unmarked) [Compound 21], in data set [1], the IC50 is 501 nM. For the same compound, the “Enzyme activity pIC50” value in data set [2] came to 7.4.

`Cc1ccc(-n2ccn(CC3CN(c4ncc(C(=O)NO)cn4)CCO3)c2=O)cc1` (centres unmarked) [Compound 22]: in data set [1], the IC50 was 5010 nM. Besides, the “Enzyme activity pIC50” value in data set [2] worked out at 7.2.

For `O=C(NO)c1cnc(N2CCC(Cn3ccn(-c4cccc(C(F)(F)F)c4)c3=O)CC2)nc1` [Compound 23], the IC50 in data set [1] is 1260 nM. For the same compound, the “Enzyme activity pIC50” value in data set [2] was determined as 7.2.

With `O=C(NO)c1cnc(N2CCC(Cn3ccn(-c4ccc5c(c4)OCCOCCOCCOCCO5)c3=O)CC2)nc1` [Compound 24], in data set [1], the IC50 is 631 nM. In addition, the “Enzyme activity pIC50” value in data set [2] was determined as 7.4.

Regarding `COc1cc(-n2ccn(CC3CCN(c4ncc(C(=O)NO)cn4)CC3)c2=O)cc(OC)c1OC` [Compound 25], the IC50 in data set [1] is 631 nM. In addition, the “Enzyme activity pIC50” value in data set [2] is given as 7.4.

As to `COc1cc(OC)cc(-n2ccn(CC3CCN(c4ncc(C(=O)NO)cn4)CC3)c2=O)c1` [Compound 26], in data set [1], the IC50 is 501 nM. Also, the “Enzyme activity pIC50” value in data set [2] turned out to be 7.4.

As for `COc1ccc(-n2ccn(CC3CCN(c4ncc(C(=O)NO)cn4)CC3)c2=O)cc1OC` [Compound 27], in data set [1], the IC50 is 631 nM. For the same compound, in data set [2], the “Enzyme activity pIC50” value is given as 7.5.

For `COc1ccc(-n2ccn(CC3CCN(c4ncc(C(=O)NO)cn4)CC3)c2=O)cc1` [Compound 28], the IC50 in data set [1] was 631 nM. Moreover, in data set [2], the “Enzyme activity pIC50” value is 7.6.

`COc1cccc(-n2ccn(CC3CCN(c4ncc(C(=O)NO)cn4)CC3)c2=O)c1` [Compound 29]: the IC50 in data set [1] was 631 nM. In data set [2], the “Enzyme activity pIC50” value is 7.7.

Regarding `O=C(NO)c1cnc(N2CCC(Cn3ccn(-c4cccc(F)c4)c3=O)CC2)nc1` [Compound 30], the IC50 in data set [1] was 631 nM. For the same compound, the “Enzyme activity pIC50” value in data set [2] is reported as 7.5.

In the case of `Cc1ccc(-n2ccn(CC3CCN(c4ncc(C(=O)NO)cn4)CC3)c2=O)cc1` [Compound 31], in data set [1], the IC50 is 631 nM. The “Enzyme activity pIC50” value in data set [2] was found to be 7.7.

For the compound `O=C(NO)c1cnc(N2CCC(Cn3ccn(-c4ccccc4)c3=O)CC2)nc1` [Compound 32], the IC50 in data set [1] was 1000 nM. Also, the “Enzyme activity pIC50” value in data set [2] is given as 6.6.

`Cc1[nH]c2ccccc2c1CCn1ccn(CC2CCN(c3ncc(C(=O)NO)cn3)CC2)c1=O` [Compound 35]: the melting point stood at 246 °C. Further, the IC50 in data set [1] is 501 nM. Moreover, in data set [2], the “Enzyme activity pIC50” value was found to be 7.9.

The compound `CC1C(=O)N(c2ccc(C#N)cc2)C(=O)N1CC1CCN(c2ncc(C(=O)NO)cn2)CC1` (centres unmarked) [Compound 36] registered a melting point of 135 °C. In addition, in data set [1], the IC50 was 1580 nM. The “Enzyme activity pIC50” value in data set [2] worked out at 7.0.

(Values after patent publication US20100160321A1, “IMIDAZOLINONE AND HYDANTOINE DERIVATIVES AS NOVEL INHIBITORS OF HISTONE DEACETYLASE” (priority 2005, published 2010).)
